Consider one compound from article PMC12512694, “PbrNAC34a- PbrMYB3/65- PbrACO2 cascade plays a role in citrate difference between the pericarp and cortex tissues of pear (P. bretschneideri Rehd.) fruit” (Molecular Horticulture, 2025).

The test system of the test is PbrACO2. The following applies: citrate to isocitrate conversion; recombinant His-PbrACO2.

A word on the Km: it is the concentration of substrate that gives half-maximal velocity. As for `O=C(O)CC(O)(CC(=O)O)C(=O)O` [citrate], the Km is 630 µM.
